Data as given in patent US9028858B2 (Coloplast A/S, priority 2003, dated 2015).
Where two headings read alike, the source gives them in different places.

Columns and labels:
[1] = Appearance index of catheter and swelling medium after sterilization; assay type: physicochemical; conditions: 0=totally unacceptable, 5=perfect
Description: The appearance index was a weighted average of the subjective acceptability after sterilization of catheters packed in one single compartment with catheter and swelling medium (on a scale from 0 to 5: 0=totally unacceptable, e.g. by strong color or major precipitation; 5=perfect, e.g. no coloration, no precipitate) of the hydrophilic catheter (weighted 60%) and the swelling medium (weighted 40%).

seven bacteria = experiment: Antibacterial effect / antibacterial index of silver compounds; assay type: cell-based; conditions: for Antibacterial index: index between 0 and 5.05; for antibacterial effect: pH 5.5, 7 and 8.5, 160 mM NaCl, 6% PEG 2000, excess undissolved salt (precipitate) present
Protocol: The solutions further contained 160 mM NaCl and 6% PEG 2000, and all solutions were sterilized with 50 kGy β- or γ-irradiation. β-Irradiation generally gave a better antibacterial effect and a smaller degree of coloration of the products than γ-irradiation, so β-irradiation was the preferred sterilization method. The silver compounds only worked when excess undissolved salt was allowed in the packaging, that is, they had no antibacterial effect when they were decanted from their precipitate.
The antibacterial effect of each compound was scored on a scale from 0 (no effect) to 3 (excellent effect) for each of the seven bacteria. The antibacterial index was defined as 5/12 multiplied by the sum of the square roots of the scores of each of the seven bacteria. Thus, the antibacterial index was a rational number between 0 and 5.05.

[2] = assay type: physicochemical
Protocol: When the results were analyzed and further tests were carried out to confirm the results, it appeared that the effects might be third-order interactions or higher. That is, the effects came from mixtures of 3, 5, 7 or any other odd number of compounds but apparently not from main effects or 2-factor interactions. Thus, a large synergistic action between the compounds appeared to be present.

[3] = for Degradation rate of 1% H2O2: Rate constant (k) (%/day) / Degradation rate of 1% H2O2: log k (%/day): 500 µg/mL DETAPMP, 10 mM citrate, 0.7% NaCl, pH 4
Description: The pH-value of the solution was adjusted to pH 4 with 4 M NaOH and 1 M HCl.
Seven swelling media were produced.
The irradiation dose was 2*26 kGy.
The stick-pack with “peel” was a laminated material consisting of PETP (12 μm), aluminium (9 μm) and polyethylene peel (polyethylene+10% polybutylene) (70 μm). The stick-packs were made out of a stamped area of 13×35 mm that was welded in the longitudinal direction by 1×3 units on a welder. It was welded by 2×2.2 units across in one end of the stick-pack, and in the other end by 4.0 bar, 130° C. and 3.5 s (breakable seal).

[4] = Various stabilizers: degradation of H2O2 at pH 4, 5.5 and 7; conditions: with stabilizer, 25 mM citric acid, approx. 1% H2O2
Protocol: Therefore the investigation of the influence of the pH-value on the stability in our system was included in the study.
24 different kinds of swelling media containing different stabilizers (one without stabilizer) and 3 different pH-values (pH 4, 5.5 and 7) were prepared. […] The concentration of sodium chloride in each of these three swelling media was 0.7% (w/w). Sodium chloride was tested because it could be used as an osmolality increasing agent. […] Two different kinds of material for the stick-pack were used, one with “peel” and one with “non-peel”. […] The irradiation dose was 2*26 kGy.
The stick-pack with “peel” was a laminated material consisting of PETP (12 μm), aluminium (9 μm) and polyethylene peel (polyethylene+10% polybutylene) (70 μm). […] The stick-packs were made out of a stamped area of 13×35 mm that was welded in the longitudinal direction by 1×3 units on a welder. It was welded by 2×2.2 units across in one end of the stick-pack, and in the other end by 4.0 bar, 130° C. and 3.5 s (breakable seal).
The stick-packs were stored for stability testing at 23° C. and 40° C. Samples were taken out after irradiation and after 2 and 4 weeks at 40° C. and 8 and 16 weeks at 23° C.

Providencia Stuartii = experiment: Coated catheter on inoculated agar plate, inhibition zone; assay type: cell-based; conditions: 1-5 g/L in 50 mM citrate (pH 5.5), 160 mM NaCl and 6% PEG 2000
Protocol: (§1) A series of antibacterial agents (See Table 12.1) were swelled into a hydrophilic coating on urinary catheters. The catheters were stored about 0, 3, 6 and 12 weeks at 25° C., 40° C., and 60° C. Agar plates were inoculated with various bacterial strains clinically isolated from infected human urine, and added the coated catheter on top of the surface of the agar. The agar plates were incubated for 18 hours at 37° C., and visually tested for presence or absence of an inhibition zone.
(§2) Catheter sections with a hydrophilic coating were swelled with a solution of the anti-microbial agents and were placed on agar plates inoculated with bacteria (clinical isolates, − and + denotes […], respectively): Proteus mirabilis (−), Pseudomonas aeruginosa (−), E. coli (−), Providencia Stuartii (−), Staphylococcus aureus (+), Enterococcus faecalis (+) and Klebsielia (−).
(§3) A highly fractionated factorial design (2^15-10IV-design) was constructed by Design Expert software (version 6.0.6) and used to screen 32 of the 2^15=32768 possible combinations, where each compound was either absent or present in a relevant concentration. […] All samples were β-sterilized with a dose of 50 kGy. The constituents and concentrations of the 32 solutions are described in Table 12.1:
(§4) Many of the 32 mixtures had powerful action against several of the 7 bacteria (0=no effect; 3=excellent effect), see Table 12.2 (sorted by decreasing antibacterial effect).

Klebsiella = experiment: as above; assay type: cell-based; conditions: 1-5 g/L in 50 mM citrate (pH 5.5), 160 mM NaCl and 6% PEG 2000
Protocol: as §1, §2, §3, §4

Enterococcus faecalis = experiment: as above; assay type: cell-based; conditions: 1-5 g/L in 50 mM citrate (pH 5.5), 160 mM NaCl and 6% PEG 2000
Protocol: as §1, §2, §3, §4

Proteus mirabilis = experiment: as above; assay type: cell-based; conditions: 1-5 g/L in 50 mM citrate (pH 5.5), 160 mM NaCl and 6% PEG 2000
Protocol: as §1, §2, §3, §4

E. coli = experiment: as above; assay type: cell-based; conditions: 1-5 g/L in 50 mM citrate (pH 5.5), 160 mM NaCl and 6% PEG 2000
Protocol: as §1, §2, §3, §4

Pseudomonas aeruginosa = experiment: as above; assay type: cell-based; conditions: 1-5 g/L in 50 mM citrate (pH 5.5), 160 mM NaCl and 6% PEG 2000
Protocol: as §1, §2, §3, §4

Staphylococcus aureus = experiment: as above; assay type: cell-based; conditions: 1-5 g/L in 50 mM citrate (pH 5.5), 160 mM NaCl and 6% PEG 2000
Protocol: as §1, §2, §3, §4

Compound: CC1(C)NC(=O)[N-]C1=O.[Ag+] [5,5-DMH, silver 5,5-dimethylhydantoinate]
- Appearance index ([1]; pH 5.5, 0.01% H2O2 added): 5
- Appearance index ([1]; pH 5.5, no H2O2 added): 2.8
- Appearance index ([1]; pH 7, no H2O2 added): 3.4
- Appearance index ([1]; pH 8.5, no H2O2 added): 2.2
- Antibacterial index (seven bacteria; pH 5.5, 0.01% H2O2 added): 1.4
- antibacterial effect (seven bacteria): moderate to excellent
- Antibacterial index (seven bacteria; pH 5.5, no H2O2 added): 1.8
- Antibacterial index (seven bacteria; pH 7, no H2O2 added): 3.4
- Antibacterial index (seven bacteria; pH 8.5, no H2O2 added): 1.7

Compound: [H]/N=C(\N/C(=N/[H])NCCCCCCNC(=N)NC(=N)Nc1ccc(Cl)cc1)Nc1ccc(Cl)cc1 [Chlorhexidine, chlorhexidine digluconate]
- solubility [2]: sparingly soluble

Compound: O=P(O)(O)CN(CCN(CP(=O)(O)O)CP(=O)(O)O)CCN(CP(=O)(O)O)CP(=O)(O)O [DETAPMP, Diethylenetriaminepenta(methylenephosphonic)acid]
- Concentration of H2O2 (%) after storage at 40° C. ([3]; 50 mg/L DETAPMP, 0 days): 0.92%
- Concentration of H2O2 (%) after storage at 40° C. ([3]; 50 mg/L DETAPMP, 14 days): 0.89%
- Concentration of H2O2 (%) after storage at 40° C. ([3]; 50 mg/L DETAPMP, 25 days): 0.89%
- Concentration of H2O2 (%) after storage at 40° C. ([3]; 100 mg/L DETAPMP, 0 days): 0.91%
- Concentration of H2O2 (%) after storage at 40° C. ([3]; 100 mg/L DETAPMP, 14 days): 0.89%
- Concentration of H2O2 (%) after storage at 40° C. ([3]; 100 mg/L DETAPMP, 25 days): 0.88%
- Concentration of H2O2 (%) after storage at 40° C. ([3]; 150 mg/L DETAPMP, 0 days): 0.91%
- Concentration of H2O2 (%) after storage at 40° C. ([3]; 150 mg/L DETAPMP, 14 days): 0.90%
- Concentration of H2O2 (%) after storage at 40° C. ([3]; 150 mg/L DETAPMP, 25 days): 0.89%
- Concentration of H2O2 (%) after storage at 40° C. ([3]; 200 mg/L DETAPMP, 0 days): 0.91%
- Concentration of H2O2 (%) after storage at 40° C. ([3]; 200 mg/L DETAPMP, 14 days): 0.89%
- Concentration of H2O2 (%) after storage at 40° C. ([3]; 200 mg/L DETAPMP, 25 days): 0.89%
- Concentration of H2O2 (%) after storage at 40° C. ([3]; 250 mg/L DETAPMP, 0 days): 0.90%
- Concentration of H2O2 (%) after storage at 40° C. ([3]; 250 mg/L DETAPMP, 14 days): 0.89%
- Concentration of H2O2 (%) after storage at 40° C. ([3]; 250 mg/L DETAPMP, 25 days): 0.89%
- Concentration of H2O2 (%) after storage at 40° C. ([3]; 350 mg/L DETAPMP, 0 days): 0.91%
- Concentration of H2O2 (%) after storage at 40° C. ([3]; 350 mg/L DETAPMP, 14 days): 0.89%
- Concentration of H2O2 (%) after storage at 40° C. ([3]; 350 mg/L DETAPMP, 25 days): 0.89%
- Concentration of H2O2 (%) after storage at 40° C. ([3]; 500 mg/L DETAPMP, 0 days): 0.91%
- Concentration of H2O2 (%) after storage at 40° C. ([3]; 500 mg/L DETAPMP, 14 days): 0.89%
- Concentration of H2O2 (%) after storage at 40° C. ([3]; 500 mg/L DETAPMP, 25 days): 0.89%
- Degradation rate of 1% H2O2: Rate constant (k) (%/day) ([3]; 40° C.): 0.0932 %/day
- Degradation rate of 1% H2O2: log k (%/day) ([3]; 40° C.): −1.031 %/day
- Degradation rate of 1% H2O2: Rate constant (k) (%/day) ([3]; 50° C.): 0.1722 %/day
- Degradation rate of 1% H2O2: log k (%/day) ([3]; 50° C.): −0.764 %/day
- Degradation rate of 1% H2O2: Rate constant (k) (%/day) ([3]; 60° C.): 0.3691 %/day
- Degradation rate of 1% H2O2: log k (%/day) ([3]; 60° C.): −0.433 %/day
- activation energy for the degradation of H2O2 ([3]; Arrhenius plot 40-60° C., DETAPMP at pH 4 and 10 mM citrate): 14.2 kcal/mol
- Q10 of H2O2 degradation rate ([3]; DETAPMP at pH 4 and 10 mM citrate): ≈ 2

Compound: CC(O)(P(=O)(O)O)P(=O)(O)O [HEDP, 1-Hydroxyethane-1,1 diphosphonic acid]
- calculated amount of degraded H2O2 after 2 years of storage at 23° C. ([4]; pH 4): 65.4%
- calculated amount of degraded H2O2 after 2 years of storage at 23° C. ([4]; pH 5.5): 150.0%
- calculated amount of degraded H2O2 after 2 years of storage at 23° C. ([4]; pH 7): 351.1%

Compound: O=C1CNC(=O)[N-]1.[Ag+] [Hydantoinate, silver hydantoinate]
- Appearance index ([1]; pH 5.5, 0.01% H2O2 added): 3.6
- Appearance index ([1]; pH 5.5, no H2O2 added): 4
- Appearance index ([1]; pH 7, no H2O2 added): 3.4
- Appearance index ([1]; pH 8.5, no H2O2 added): 2.8
- Antibacterial index (seven bacteria; pH 5.5, 0.01% H2O2 added): 2.3
- antibacterial effect (seven bacteria): moderate to excellent
- Antibacterial index (seven bacteria; pH 5.5, no H2O2 added): 2.7
- Antibacterial index (seven bacteria; pH 7, no H2O2 added): 3.3
- Antibacterial index (seven bacteria; pH 8.5, no H2O2 added): 3.2

Compound: [Cl][Ag] [silver chloride]
- solubility [2]: sparingly soluble

Compound: benzalkonium chloride
- antibacterial effect on P. stuartii (Providencia Stuartii): moderate to high
- antibacterial effect on Klebsiella (Klebsiella): moderate to high
- antibacterial effect on E. faecalis (Enterococcus faecalis): moderate to high
- antibacterial effect on P. mirabilis (Proteus mirabilis): not
- antibacterial effect on E. coli (E. coli): moderate to high
- antibacterial effect on P. aeruginosa (Pseudomonas aeruginosa): moderate to high
- antibacterial effect on S. aureus (Staphylococcus aureus): moderate to high

Compound: polymeric silver imidazolate
- Appearance index ([1]; pH 5.5, 0.01% H2O2 added): 3
- Appearance index ([1]; pH 5.5, no H2O2 added): 3.4
- Appearance index ([1]; pH 7, no H2O2 added): 4.2
- Appearance index ([1]; pH 8.5, no H2O2 added): 3.2
- Antibacterial index (seven bacteria; pH 5.5, 0.01% H2O2 added): 2.7
- antibacterial effect (seven bacteria): moderate to excellent
- Antibacterial index (seven bacteria; pH 5.5, no H2O2 added): 0.8
- Antibacterial index (seven bacteria; pH 7, no H2O2 added): 3.2
- Antibacterial index (seven bacteria; pH 8.5, no H2O2 added): 2.8
